The values that follow come from ChEMBL document CHEMBL4619703, “Synthesis, G-Quadruplex DNA binding and cytotoxic properties of naphthalimide substituted styryl dyes” (Bioorg Med Chem, 2020).

Activity calls are given as the source filed them. No cut-off for these calls is given here.

Series [1] deals with Quadruplex DNA. Kind of series: Binding affinity to human c-Myc G-quadruplex DNA at 2 uM incubated for 2 mins by UV- vis spectrophotometric analysis. It counts as nucleic-acid assay.
Series [2] concerns Quadruplex DNA. The series is described as follows: Binding affinity to human CM22 G-quadruplex DNA at 2 uM incubated for 2 mins by UV- vis spectrophotometric analysis. It counts as nucleic-acid assay.
For series [3], the system named is Quadruplex DNA. The series is described as follows: Binding affinity to human Pu27 G-quadruplex DNA at 2 uM incubated for 2 mins by UV- vis spectrophotometric analysis. It counts as nucleic-acid assay.
Series [4] concerns Quadruplex DNA. The series is described as follows: Binding affinity to human Hum24 G-quadruplex DNA at 2 uM incubated for 2 mins by UV- vis spectrophotometric analysis. It counts as nucleic-acid assay.
The subject of series [5] is Quadruplex DNA. The series is described as follows: Binding affinity of human G3T3 G-quadruplex DNA at 2 uM incubated for 2 mins by UV- vis spectrophotometric analysis. It counts as nucleic-acid assay.
For series [6], the system named is Quadruplex DNA. Kind of series: Binding affinity to human Htg-21 G-quadruplex DNA at 2 uM incubated for 2 mins by UV- vis spectrophotometric analysis. It counts as nucleic-acid assay.
Series [7] concerns Quadruplex DNA. Kind of series: Binding affinity to human 22AG G-quadruplex DNA at 2 uM incubated for 2 mins by UV- vis spectrophotometric analysis. It counts as nucleic-acid assay.
Series [8] relates to Quadruplex DNA. The series is described as follows: Binding affinity to human EAD G-quadruplex DNA at 2 uM incubated for 2 mins by UV- vis spectrophotometric analysis. It counts as nucleic-acid assay.
A further series has as its system HeLa. The series is described as follows: Antiproliferative activity against human HeLa cells assessed as reduction in cell viability after 72 hrs by CCK8 assay. It counts as functional. In general terms: Formazan colour is commonly taken as a measure of viable cells.
A further series has as its system HCT-116. Kind of series: Antiproliferative activity against human HCT116 cells assessed as reduction in cell viability after 72 hrs by CCK8 assay. It counts as functional.
The next series relates to MDA-MB-231. The series is described as follows: Antiproliferative activity against human MDA-MB-231 cells assessed as reduction in cell viability after 72 hrs by CCK8 assay. It counts as functional.
The test system of another series is HEK-293T. Kind of series: Cytotoxicity against human 293T cells assessed as reduction in cell viability after 72 hrs by CCK8 assay. It counts as cell-based.
Series [9] relates to Quadruplex DNA. The series is described as follows: Binding affinity to human c-Myc G-quadruplex DNA assessed as fluorescence intensity at 2 uM by fluorescence spectra analysis. It counts as nucleic-acid assay.
The subject of series [10] is Quadruplex DNA. The series is described as follows: Binding affinity to human Htg-21 G-quadruplex DNA assessed as fluorescence intensity at 2 uM by fluorescence spectra analysis. It counts as nucleic-acid assay.
Series [11] deals with Quadruplex DNA. Kind of series: Binding affinity to human CM22 G-quadruplex DNA assessed as fluorescence intensity at 2 uM by fluorescence spectra analysis. It counts as nucleic-acid assay.
The test system of series [12] is Quadruplex DNA. The series is described as follows: Binding affinity to human 22AG G-quadruplex DNA assessed as fluorescence intensity at 2 uM by fluorescence spectra analysis. It counts as nucleic-acid assay.
Series [13] concerns Quadruplex DNA. Kind of series: Binding affinity to human Hum24 G-quadruplex DNA assessed as fluorescence intensity at 2 uM by fluorescence spectra analysis. It counts as nucleic-acid assay.
Series [14] relates to Quadruplex DNA. Kind of series: Binding affinity to human G3T3 G-quadruplex DNA assessed as fluorescence intensity at 2 uM by fluorescence spectra analysis. It counts as nucleic-acid assay.
Series [15] deals with Quadruplex DNA. Kind of series: Binding affinity to human EAD G-quadruplex DNA assessed as fluorescence intensity at 2 uM by fluorescence spectra analysis. It counts as nucleic-acid assay.
In series [16] the test system is Quadruplex DNA. The series is described as follows: Binding affinity to human Pu27 G-quadruplex DNA assessed as fluorescence intensity at 2 uM by fluorescence spectra analysis. It counts as nucleic-acid assay.
The test system of the next series is ssDNA. The series is described as follows: Binding affinity to SS26 DNA (unknown origin) assessed as fluorescence intensity at 2 uM by fluorescence spectra analysis. It counts as nucleic-acid assay.
The test system of series [17] is DNA. Kind of series: Binding affinity to ds26 DNA (unknown origin) assessed as fluorescence intensity at 2 uM by fluorescence spectra analysis. It counts as nucleic-acid assay.
The test system of series [18] is Calf thymus DNA. Kind of series: Binding affinity to calf thymus DNA assessed as fluorescence intensity at 2 uM by fluorescence spectra analysis. It counts as nucleic-acid assay. The settings on record: Bos taurus.
The test system of series [19] is Poly(dG-dC)oligonucleotide. The series is described as follows: Binding affinity to poly (G-C)7 DNA assessed as fluorescence intensity at 2 uM by fluorescence spectra analysis. It counts as nucleic-acid assay.
The subject of series [20] is Quadruplex DNA. The series is described as follows: Binding affinity to human 22AG G-quadruplex DNA by spectrofluorophotometric method. It counts as nucleic-acid assay.
The target in series [21] is Quadruplex DNA. Kind of series: Displacement of TO from human G3T3 G-quadruplex DNA at pH 7.4 by spectrofluorophotometric FID assay. It counts as nucleic-acid assay.
For series [22], the system named is Quadruplex DNA. Kind of series: Binding affinity to human G-Quadruplex DNA assessed as aggregation at 10 uM by TEM analysis. It counts as nucleic-acid assay.
The test system of series [23] is Quadruplex DNA. The series is described as follows: Binding affinity to human CM22 G-quadruplex DNA by spectrofluorophotometric method. It counts as nucleic-acid assay.
Series [24] concerns the target Quadruplex DNA. Kind of series: Displacement of TO from human 22AG G-quadruplex DNA at pH 7.4 by spectrofluorophotometric based FID assay. It counts as nucleic-acid assay.
In series [25] the target is Quadruplex DNA. Kind of series: Displacement of TO from human CM22 G-quadruplex DNA at pH 7.4 by spectrofluorophotometric FID assay. It counts as nucleic-acid assay.
Series [26] concerns the target Quadruplex DNA. Kind of series: Displacement of TO from human c-Myc G-quadruplex DNA at pH 7.4 by spectrofluorophotometric FID assay. It counts as nucleic-acid assay.
For series [27], the target named is Quadruplex DNA. Kind of series: Displacement of TO from human Htg 21 G-quadruplex DNA at pH 7.4 by spectrofluorophotometric FID assay. It counts as nucleic-acid assay.
The target in series [28] is Quadruplex DNA. Kind of series: Displacement of TO from human Hum 24 G-quadruplex DNA at pH 7.4 by spectrofluorophotometric FID assay. It counts as nucleic-acid assay.
The target of series [29] is Quadruplex DNA. Kind of series: Displacement of TO from human Pu 27 G-quadruplex DNA at pH 7.4 by spectrofluorophotometric FID assay. It counts as nucleic-acid assay.
For series [30], the target named is Quadruplex DNA. The series is described as follows: Displacement of TO from human EAD G-quadruplex DNA at pH 7.4 by spectrofluorophotometric FID assay. It counts as nucleic-acid assay.
The target of series [31] is DNA. The series is described as follows: Displacement of TO from ds26 DNA (unknown origin) at pH 7.4 by spectrofluorophotometric FID assay. It counts as nucleic-acid assay.
Series [32] relates to Calf thymus DNA. The series is described as follows: Displacement of TO from calf thymus DNA at pH 7.4 by spectrofluorophotometric FID assay. It counts as nucleic-acid assay, Bos taurus.
Series [33] deals with Poly(dG-dC)oligonucleotide. The series is described as follows: Displacement of TO from Polyd(G-C)7 DNA at pH 7.4 by spectrofluorophotometric FID assay. It counts as nucleic-acid assay.
Series [34] deals with Quadruplex DNA. The series is described as follows: Binding affinity to human c-Myc G-quadruplex DNA assessed as inhibition of G4/hemin peroxidase at 1 to 5 uM preincubated for 1 hr followed by hemin addition and further incubated for 1 hr and H2O2 addition and measured after 30 mins by UV spectrophotometric method. It counts as nucleic-acid assay.
Series [35] relates to Quadruplex DNA. The series is described as follows: Binding affinity to human Hum24 G-quadruplex DNA assessed as inhibition of G4/hemin peroxidase at 1 to 5 uM preincubated for 1 hr followed by hemin addition and further incubated for 1 hr and H2O2 addition and measured after 30 mins by UV spectrophotometric method. It counts as nucleic-acid assay.
For series [36], the system named is Quadruplex DNA. Kind of series: Binding affinity to human 22AG G-quadruplex DNA assessed as inhibition of G4/hemin peroxidase at 1 to 5 uM preincubated for 1 hr followed by hemin addition and further incubated for 1 hr and H2O2 addition and measured after 30 mins by UV spectrophotometric method. It counts as nucleic-acid assay.
Series [37] relates to Quadruplex DNA. The series is described as follows: Binding affinity to G-Quadruplex DNA in human HeLa cells assessed as red fluorescence emission in nucleus at 20 uM after 30 min by DAPI staining based confocal microscopic method. It counts as cell-based.

`C[n+]1ccccc1/C=C/c1ccc(N2CCN(CCCN3C(=O)c4cccc5cccc(c45)C3=O)CC2)cc1.[I-]`: the result in the series on Quadruplex DNA [1], with Quadruplex DNA [2], in the series with Quadruplex DNA [3], in the series with Quadruplex DNA [4], with Quadruplex DNA [5] and with Quadruplex DNA [6] was inactive. The result with Quadruplex DNA [7] and in the series with Quadruplex DNA [8] was inactive. Also, the Activity in the series on HeLa came out at 0.1913 µM; in the series on HCT-116, 0.5566 µM; in the series with MDA-MB-231, 0.1014 µM; with HEK-293T, 1.753 µM. For the same molecule, the fold change (FC) in the series on Quadruplex DNA [9] is 16; in the series with Quadruplex DNA [10], 700 to 1800; with Quadruplex DNA [11], 700 to 1800; in the series on Quadruplex DNA [12] it was 700 to 1800; in the series with Quadruplex DNA [13], 700 to 1800; with Quadruplex DNA [14], 700 to 1800. Also, the fold change (FC) with Quadruplex DNA [15] is 700 to 1800; in the series with Quadruplex DNA [16] it was 700 to 1800; with ssDNA, 50 to 300; in the series with DNA [17] it was 50 to 300; in the series on Calf thymus DNA [18], 50 to 300; in series [19], 50 to 300.

With `C[n+]1c(/C=C/c2ccc(N3CCN(CCCN4C(=O)c5cccc6cccc(c56)C4=O)CC3)cc2)ccc2c3ccccc3ccc21.[I-]`, the result in the series on Quadruplex DNA [1], in the series with Quadruplex DNA [2], in the series on Quadruplex DNA [3], in the series with Quadruplex DNA [4], in the series with Quadruplex DNA [5] and in the series with Quadruplex DNA [6] was Active. Further, the result in the series on Quadruplex DNA [7], in the series on Quadruplex DNA [8], in the series on Quadruplex DNA [22] and in the series with Quadruplex DNA [37] was Active. In addition, the Ka with Quadruplex DNA [20] was found to be 0.27 ×10⁶ /M; in the series with Quadruplex DNA [23], 290000 M⁻¹. Further, the DC50 on Quadruplex DNA [21] was found to be 0.41 µM; at Quadruplex DNA [24], 0.48 µM; at Quadruplex DNA [25] it was 0.39 µM; on Quadruplex DNA [26], 0.32 µM; at Quadruplex DNA [27], 0.69 µM; at Quadruplex DNA [28], 0.5 µM. Moreover, the DC50 on Quadruplex DNA [29] is 0.32 µM; at Quadruplex DNA [30], 0.35 µM; at DNA [31] it was 0.98 µM; in the series with Calf thymus DNA [32] it was 0.85 µM; in series [33], more than 1.5 µM. The inhibition result with Quadruplex DNA [34], with Quadruplex DNA [35] and in the series on Quadruplex DNA [36] was “Active” each time. The Activity amounted to 0.2438 µM with HeLa, 0.4764 µM with HCT-116, 0.1432 µM in the series with MDA-MB-231 and 0.5372 µM with HEK-293T. The fold change (FC) in the series with Quadruplex DNA [9] was 1800; in the series on Quadruplex DNA [10] it was 700 to 1800; with Quadruplex DNA [11] it was 700 to 1800; in the series with Quadruplex DNA [12], 700 to 1800; in the series on Quadruplex DNA [13], 700 to 1800; in the series with Quadruplex DNA [14] it was 700 to 1800. Also, the fold change (FC) in the series with Quadruplex DNA [15] fell in the range of 700 to 1800; with Quadruplex DNA [16] it was 700 to 1800; in the series on ssDNA, 50 to 300; in the series with DNA [17], 50 to 300; in the series on Calf thymus DNA [18], 50 to 300; in series [19], 50 to 300.

Regarding `O=c1[nH]cc(F)c(=O)[nH]1` [FLUOROURACIL], the Activity with HeLa was 0.8046 µM; in the series with HCT-116, 1.123 µM; in the series with MDA-MB-231, 0.8615 µM; with HEK-293T, 0.5879 µM.
